Here are results for five molecules from patent publication US20120315345A1, “FUNCTIONAL FOOD AND PHARMACEUTICAL COMPOSITIONS FOR ANTI-OBESITY COMPRISING CAPSANTHIN AND FATTY-ACYL ESTER OF CAPSANTHIN HAVING ANTI-ADIPOGENIC ACTIVITY” (ESBIOTECH CO., LTD., priority 2011, published 2012).

In one series the test system is 3T3-L1 cells. The series is described as follows: Inhibition test on adipocyte differentiation (counting of Oil Red O stained cells). It counts as cell-based, mouse. The conditions noted are these: 3 days in differentiation medium, microscopical counting of Oil Red O stained cells. On the procedure:
(§1) 3T3-L1 mouse embryonic fibroblast was cultured according to Singh's method (Singh R, Testosterone inhibits adipogenic differentiation in 3T3-L1 cells: Nuclear translocation of androgen receptor complex with β-catenin and T-cell factor 4 may bypass canonical WNT signaling to down-regulate adipogenic transcription factors, Endocrinology, 2006, 147, 141 to 154).
(§2) 3T3-L1 cells supplied by Korean cell line bank were cultured on a Dulbecco's modified Eagle's medium (DMEM) medium that includes 10% bovine calf serum and 1% penicillin-streptomycin mixture. When they reached confluence, culturing was continued for further 2 to 3 days. Thereafter, the medium was replaced by a fresh DMEM medium containing 10% fetal bovine serum, 1.7 μM insulin, 0.5 mM 3-isobutyl-1-methylxanthine (IBMX) and 1 μM dexamethasone and culturing was continued for 8 days. For the evaluation of inhibitory activities of capsanthin on adipocyte differentiation and on triglycerides accumulation in adipocyte, a positive control experiments were conducted on capsaicin (sigma) and/or genistein (sigma).
Mouse embryonic 3T3-L1 cells were plated in 12-well culture plate with DMEM containing 10% BCS (Bovine calf serum) and cultured for the proliferation of cells under 5% CO2 atmosphere at 37° C. until confluent phase is appeared. Continued culture for additional 2 days will ensure the clonal expansion. Culture media is replaced with differentiation medium consisting of DMEM, 10% FBS, 1.7 uM insulin, 0.5 mM IBMX, 1 uM dexamethasone and varying amount of capsanthin in DMSO (final concentration of DMSO in the differentiation media were kept under 0.1%) and cultured additional 3 days for the induction of cell differentiation Culture media was removed and washed with PBS and the cells were fixed on the well surface by incubation with 10% formaldehyde for one hour and then washed with PBS. The differentiate cells were stained with Oil Red O solution for 2 hours. The number of adipocyte stained red was counted with microscopical observation.

For the next series, the system named is 3T3-L1 cell. The series is described as follows: Inhibitory activity on triglycerides accumulation in adipocyte (Oil Red O staining). The conditions noted are these: read-out: IC50-value on triglycerides accumulation in adipocyte. The format is cell-based, mouse. On the procedure: as §1, §2
Negal's Oil red O staining procedure (Negrel R, Culture of adipose precursor cell and cells of clonal lines from animal white adipose tissue, in adipose tissue protocols. G. Ailhaud (ed). Humana press, inc., Totowa, N.J., 2001, 225-237) was adopted to assay the quantities of triglyceides accumulated in adipocytes. The pre-adipocytes (3T3-L1 cell) were cultured in 12-well culture plate for additional two days to induce clonal expansion after the confluent phase. The culture media was replaced with differentiation media which is containing various concentration of capsanthin solution in DMSO (final concentration of DMSO in the differentiation media were kept under 0.1%) and cultured for additional 8 days to induce lipid accumulation. The culture media was removed by aspiration and washed with PBS. The cells were fixed on the surface of culture well by incubation for one hour with 500 ul of 10% formaldehyde solution. After removal of formaldehyde the cells were washed with PBS and then stained by incubation with Oil Red O for 2 hours. After two removal of Oil Red O solution by aspiration the cells were washed with PBS and then Oil Red O in adipocyte was extracted by incubation 10 minutes with 1 ml isopropyl-alcohol. Oil Red O contents in isopropyl-alcohol were assayed by 510 nm absorption on ELISA reader.

Series [1] is described as follows: Stability during fermentation of kochujang. It counts as physicochemical. The source says: Capsanthin is contained in the natural products such as red peppers as the chemically stable esterified-form. Therefore, even when red peppers or the likes are included in fermented foods as the Korean traditional foods like “kimchi” or “kochujang” (also referred to as “gochujang”), original anti-adipogenic activities thereof are retained. On the other hand, it was found in our laboratory that about 35% or more of anti-adipogenic capsaicin component was destroyed during 6 month-long fermentation.
Red pepper is a traditional spicy vegetable food and more than 90% of total consumption in Korea is used to prepare traditional fermented food such as “kimchi” and “kochujang” in Korea. […] Based on this observation, present inventors are claiming that the anti-adipogenic activity of “kochujang” is due more to capsanthin components rather than to the capsaicin or capsaicin metabolite.

On the set-up of series [2]: species or system Sprague-Dawley albino rats. To be noted: rat, in vivo. On the procedure: Male Sprague-Dawley albino rats were used for the analysis of gastro-intestinal absorption of capsanthins. Animals were accommodated in a constant humidity of 50 (±5) % and constant temperature of 25 (±1)° C. under shading control of light and dark with 12 hours intervals. Feeds and water supplies were provided at libidium.
Free-form capsanthin (15 mg/kg body wt) in soy-bean oil was orally administered to group-1 animals and then 4 ml time-course blood samples were collected from the animals to EDTA tubes and centrifuged (3,000 rpm, 10 min) to obtain 1 ml plasma samples. To the plasma samples 1 ml of 1%-BHT in ethanol and 2 ml hexane were mixed, shaked vigorously and centrifuged for 5 minutes at 2,000 rpm to obtain hexane layer for the HPLC-analysis under the HPLC-condition appears in Example 10. (M. A. Grashom, Quantification of carotenoids in chicken plasma after feeding free of esterified lutein and capsanthin using high-performance liquid chromatography and liquid chromatography-mass spectrometry analysis, Poultry science, 2003, 82, 395-401, Hideo E, Carotenoids in human blood plasma after ingesting paprika juice)
Fatty-acyl ester of capsanthin was orally administered to group-2 animals equimolar dosage bases with that of free-form capsanthin. The time course collection of blood and further treatments were conducted as same way with that of group-1 experiments [Ref. to 0086]

The mark [3] stands for this setting: 3T3-L1 cells, 8 days in differentiation media, Oil Red O.

Like-named read-outs stand apart in the source and are kept apart here.

As to `COc1cc(CNC(=O)CCCC/C=C/C(C)C)ccc1O` [capsaicin], the IC50 in the series with 3T3-L1 cells (Mus musculus, 72 h) is 3.39 µM; in the series with 3T3-L1 cell (Mus musculus, 3T3-L1, 192 h), 32.6 µM. Further, in series [1] (6 month-long fermentation), the “Component destroyed during fermentation” value was no less than 35%. The “Chemical alteration during fermentation of kochujang” value in series [1] is “significant decomposition”.

As for `CC1=C(/C=C/C(C)=C/C=C/C(C)=C/C=C/C=C(C)/C=C/C=C(C)/C=C/C(=O)[C@]2(C)C[C@@H](O)CC2(C)C)C(C)(C)C[C@H](O)C1` [free-form capsanthin, capsanthin], the IC50 in the series on 3T3-L1 cells turned out to be 4.49 µM; in the series on 3T3-L1 cell (setting [3]), 1.31 µM. Besides, the “Molecular species found in the blood by HPLC after oral administration” value in series [2] is “appeared in the blood”.

In the case of `O=c1c(-c2ccc(O)cc2)coc2cc(O)cc(O)c12` [genistein], the IC50 in the series on 3T3-L1 cells (Mus musculus, 72 h) came to 28.1 µM; with 3T3-L1 cell (Mus musculus, 192 h, 3T3-L1 cells, 8 days in differentiation media, Oil Red O), 58.7 µM.

Take “fatty-acyl ester of capsanthin [esterified-form capsanthin]”: the concentration for half-maximal inhibition (IC50) in the series with 3T3-L1 cells worked out at 75.4 µM; in the series with 3T3-L1 cell (setting [3]), 55.2 µM. Besides, the “Molecular species found in the blood by HPLC after oral administration” value in series [2] is listed as “not detected”. The “Chemical alteration during fermentation of kochujang” value in series [1] is “remained without any chemical alteration”.

Regarding fucoxanthin, the IC50 in the series with 3T3-L1 cells came to 79.1 µM; in the series on 3T3-L1 cell (setting [3]), 54.8 µM.

In general, IC50 refers to the concentration that inhibits the measured activity by half.
